Patent publication US20200253877A1, “GEMCABENE, PHARMACEUTICALLY ACCEPTABLE SALTS THEREOF, COMPOSITIONS THEREOF AND METHODS OF USE THEREFOR” (NEUROBO PHARMACEUTICALS, INC., priority 2018, published 2020)

Experiments:
[1] = Aqueous solubility of gemcabene calcium salt forms over 24 hours (HPLC concentration, XRPD form); assay type: physicochemical; settings: slurry in water, approximately 25° C.
Description: To each vial, approximately 3 mL to 4 mL water were added and the samples were mixed at ambient temperature (approximately 25° C.) for approximately 24 hours. […] From each vial, samples of the slurries were taken after 1, 4, and 24 hours, which were separated by centrifugation. The solids were separated by centrifugation and analyzed by XRPD for solid form and by HPLC for concentration.

[2] = Stability study of gemcabene calcium salt forms (XRPD form, HPLC/CAD purity); assay type: physicochemical
Description: The stability studies were carried out using storage conditions at a) 40° C. and 75% relative humidity (RH), b) at 80° C. and c) at ambient temperature (approximately 22° C.). After 7 days and 14 days, the samples were removed from the relevant storage conditions and initially analyzed by XRPD to identify any form changes. The samples were then analyzed by HPLC/CAD (high-performance liquid chromatography equipped with a charged aerosol detector) for purity, with all solid purity values given on a w/w % basis.

## CC(C)(CCCCOCCCCC(C)(C)C(=O)[O-])C(=O)[O-].[Ca+2] [amorphous gemcabene calcium salt]
[1]; 24 hours
  change in polymorphic form during the test period (XRPD): conversion to a new polymorph, gemcabene calcium salt hydrate Crystal Form 6
[1]; sampled 1, 4, 24 hours
  change in concentration (HPLC) during the experiment: initial increase in concentration after 4 hours followed by a slight decrease in the concentration after 24 hours
[2]; 2-week study, 40° C./75% RH, 80° C. and ambient
  change in form (XRPD): No change in the form
[2]; after 2 weeks storage, all 3 storage conditions
  purity (HPLC/CAD) compared to the starting form: drop in purity
